Laboratory results from patent US20240050427A1, “TREATMENTS FOR OBSESSIVE COMPULSIVE DISORDER” (SIRGARTAN HOLDINGS LTD, priority 2022, published 2024).

What was measured:
rat model of OCD [1] = assay: Observing Response Task (ORT), rat model of compulsive-like checking in OCD (sign-trackers = OCD model, goal-trackers = controls); assay type: in vivo
Description: OCD may be studied using animal models and such models may be used to evaluate compounds of the present invention. One model may be a rat model of compulsive-like checking behaviour described by Eagle et al., Behav. Brain Res, 1 May 2014; 264(100): 207-29. Briefly, rats are trained to work for palatable food which is unpredictably available for responding on one of two levers in an operant chamber. The rats can gain information about the location of the effective lever by making ‘observing responses’ on a third lever at the rear of the chamber. Predictably, responding on this lever is increased under conditions of uncertainty, as this adaptive checking increases the chance of food reward. However, some rats respond excessively on the observing lever and this can be disadvantageous or ‘non-functional’. This excessive checking behaviour is boosted by treatment with dopamine D2 receptor drugs such as quinpirole and also if there is a prior tendency in rats to over-respond to conditioning signals for food (‘sign-tracking’), associated with elevated dopamine activity in the nucleus accumbens. Rats who respond to the food itself are called goal-trackers. […] Moreover, in a human version of this test (i.e. involving essentially the same task for humans as for rodents), it has been shown that OCD patients check more than healthy control volunteers (Morein-Zamir et al., Q. J. Exp. Psychol. (Hove), 2018 October; 71(10): 2052-2069).
Male Lister-hooded rats (n=48, Charles River, UK) were group-housed in fours and maintained at approximately 95% free-feeding weight. Experiments were conducted during the dark phase of a reversed 12-hour light-dark cycle (lights off at 07:00). This research was conducted on UK Home Office Project Licence PA9FBFA9F and was regulated under the Animals (Scientific Procedures) Act 1986 Amendment Regulations 2012 following ethical review by the University of Cambridge Animal Welfare and Ethical Review Body.
The 48 male Lister-Hooded rats were trained on the Observing Response Task (ORT) and classified as sign-trackers […] or goal-trackers (n=24) following AutoShaping training, as described previously. Based on the research described above, the sign-tracker rats provide the OCD model and the goal-trackers are controls.
The ‘drug treatment’ data refer to behaviour under the influence of the specific dose (3 mg/kg or 10 mg/kg), 2 hours after an intraperitoneal injection. The ‘0 mg/kg’ data refer to an intraperitoneal injection of the 0.9% (w/v) physiological saline vehicle.
Rats were divided into groups to receive different doses of AZD-8529 in a counterbalanced order. […] “mg/kg” refers to a dose that was determined based on the body weight of the rat. For example, a rat weighing 0.5 kg receiving a dose of 3 mg/kg would receive a dose of 1.5 mg.
All statistical analyses were conducted using IBM SPSS Statistics v27. Data were analysed using repeated measures ANOVAs. Omnibus ANOVAs were first conducted to determine whether the order of drug dosing influenced the behavioural outcomes, and whether there were differences in baseline levels of responding. Planned ANOVAs assessing the drug administration sessions only were subsequently conducted.

rat model of OCD [2] = assay: as above; assay type: in vivo; conditions: rats, 30 mg/kg single intraperitoneal dose

increased responding on the active lever during the cue (discrimination with light on) (rat model of OCD [1]; 3 mg/kg i.p., full cohort, p=0.38): not seen
number of rewards earned during the session (rat model of OCD [1]; 10 mg/kg i.p., full cohort, compared to vehicle and 3 mg/kg, p<0.001): reduced the numbers of reward earned
increased responding on the active lever during the cue (discrimination with light on) (rat model of OCD [1]; 10 mg/kg i.p., full cohort, p=0.21): not seen
SMILES: Cc1cc(-c2nc(CN3CCNCC3)no2)cc2c1C(=O)N(Cc1ccc(OC(F)(F)F)cc1)C2 [AZD-8529, 7-methyl-5-(3-piperazin-1-ylmethyl-[1,2,4]oxadiazol-5-yl)-2-(4-trifluoromethoxybenzyl)-2,3-dihydroisoindol-1-one]
number of rewards earned during the session (rat model of OCD [1]; 3 mg/kg i.p. vs vehicle, full cohort, p=0.91): equivalent numbers of rewards were earned
dysfunctional checking (eOLPs) (rat model of OCD [1]; OCD model (sign-trackers), 3 mg/kg i.p. vs 0 mg/kg control, p<0.002): reduction in dysfunctional checking
dysfunctional checking (eOLPs) (rat model of OCD [1]; OCD model (sign-trackers), 10 mg/kg i.p. vs 0 mg/kg control, p<0.002, not lower than 3 mg/kg (p=0.94)): reduction in dysfunctional checking
functional checking (Observing Lever Presses, OLPs) (rat model of OCD [1]; OCD model (sign-trackers), 3 and 10 mg/kg i.p., 2 hours after injection, p<0.001): reduced functional checking in a dose-dependent manner
functional checking (Observing Lever Presses, OLPs) (rat model of OCD [1]; controls (goal-trackers), 3 and 10 mg/kg i.p., 2 hours after injection, p=0.008): reduced functional checking in a dose-dependent manner
dysfunctional checking (eOLPs) (rat model of OCD [1]; controls (goal-trackers), 3 and 10 mg/kg i.p., all p's>0.079): no overall reduction in dysfunctional checking
functional checking (Observing Lever Presses, OLPs) (rat model of OCD [1]; full cohort (sign-trackers plus goal-trackers), 3 and 10 mg/kg i.p. vs 0 mg/kg, 2 hours after injection, mesylate salt, p<0.001): reduced functional checking in a dose-dependent manner
dysfunctional checking (Extra Observing Lever Presses, eOLPs) (rat model of OCD [1]; full cohort, 3 and 10 mg/kg i.p. vs 0 mg/kg, 2 hours after injection, p<0.001): reduced dysfunctional checking in a dose-dependent manner
adverse effects (rat model of OCD [2]): unexpected adverse gastrointestinal effects
